From patent publication US11352350B2, “IRAK degraders and uses thereof” (Kymera Therapeutics, Inc., priority 2018, dated 2022) come the findings set out here.

Structures are written as SMILES.

Assay [1] concerns the target T1, IRAK4 (Homo sapiens (Human), UniProt Q9NWZ3). The assay is described as follows: IRAK4 MSD degradation in OCI-LY10. The assay is classed as cell-based. Conditions: MSD. The gist of the method: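 Remaining IRAK4 quantified by electrochemiluminescent MSD sandwich assay with two anti-IRAK4 antibodies. Compounds were dosed as 8 concentrations in 1:3 steps from a 1 to 10 μM final top on OCI-LY10 cells, incubated 4 to 24 h at 37° C. under 5% CO2. DC50 fitted with a three-parameter logistic curve.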

Assay [2] deals with OCI-LY10. The assay can be described thus: CTG Cell Viability Assay - OCI-LY10. Type of assay: cell-based, human. Conditions: Homo sapiens, OCI-Ly10, 96 h, OCI-LY10, 4 days; read-out: CTG Cell Viability Assay - OCI-LY10: Average external-IC50. Summed up: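 Viability read by CellTiter-Glo luminescence after 4 days at 37° C under 5% CO2 with compound (top 10 μM final, 1:3 steps, 9 doses, DMSO 0.2%). Three-parameter logistic fit gave IC50.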

Assay [3] deals with TNFα. The assay is described as follows: Human whole blood LPS TNFα assay. The assay is classed as cell-based. Conditions: 20 h pretreatment, LPS 5 h, read-out: IRAK4 human whole blood LPS TNFa inhibition: Average external-IC50. The gist of the method:
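Fresh human whole blood pretreated 20 h at 37 °C with compound (8-point, 5-fold dilution from 2 μM start), then stimulated with 100 ng/ml LPS (final) for 5 h. Plasma TNFα quantified by MSD V-plex, normalised to stimulated and unstimulated controls; IC50 from 4-parameter logistic fit.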

The test system of assay [4] is TNFα. The assay can be described thus: Human PBMC LPS TNFα assay. Conditions: hPBMC, LPS stimulation, read-out: IRAK4 hPBMC LPS TNF-α inhibition: Average external-IC50. Type of assay: cell-based. As to the method:
Human PBMC LPS TNFα assay. Frozen PBMCs were thawed into RPMI with 10% FBS/1% penicillin/streptomycin and same day plated into 96 well plates at 200,000 PBMC/[…] media per well. Compound plates were prepared in DMSO with D300 cassette as 8-point dose curves in duplicate, starting dose 2 μM, 5-fold. Compounds are added 200 nL into cells for final 200 μL per well. Compound and cells were incubated at 37° C., 5% CO2 for 20 hours. After twenty hours of pretreatment with the compounds, LPS (01 1 1:B4) (Sigma #L2637) was added at 100 ng/ml final concentration and PBMCs incubated an additional five hours at 37° C., 5% CO2. Following assay completion, PBMC plates were spun down at 2000 rpm for 10 minutes. 100 uL of supernatant was carefully removed and placed into a new 96 well Costar (#3879) plate and stored at −80° C. until further analysis. Meso scale Discovery (MSD) human V-plex assays were used to measure cytokine levels. On day of cytokine analysis, supernatant samples were thawed, diluted with V-plex diluent #2, and directly to MSD plates. Assay was further completed per standard manufacturer's protocol. Cytokine data was normalized to LPS stimulated and unstimulated controls. Prism Graphpad was used to generate IC50 using 4 parameter logistic regression curve, free-fit.

Assay [5] deals with T1, IRAK4. The assay can be described thus: IRAK4 degradation in human whole blood lymphocyte - flow cytometry. Type of assay: cell-based. Conditions: read-out: IRAK4 degradation in whole blood lymphocyte-Flow cytometry: Average external Abs IC50. The gist of the method: (§1)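 Fresh heparinized human whole blood dosed (10-point, 5-fold, 0.1% DMSO) for 20 h or 4 h at 37 °C, then fixed, stained and IRAK4 MFI quantified by flow in CD14+ monocytes and CD14− lymphocytes. DC50 and Dmax via 4-parameter logistic fit normalized to DMSO and 10 μM control.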
On the technique in general: A flow cytometer gives signals particle by particle.

In assay [6] the target is T1, IRAK4. The assay is described as follows: IRAK4 degradation in human whole blood monocyte - flow cytometry. Type of assay: cell-based. Conditions: read-out: IRAK4 degradation in whole blood monocyte-Flow cytometry: Average external Abs IC50. The gist of the method:
as §1

Setting [7] is: OCI-LY10, 4 hrs, read-out: IRAK4 MSD degradation in OCI-LY10 at 4 hrs: Average external-Abs DC50.

T1 sequence (Q9NWZ3 whole entry): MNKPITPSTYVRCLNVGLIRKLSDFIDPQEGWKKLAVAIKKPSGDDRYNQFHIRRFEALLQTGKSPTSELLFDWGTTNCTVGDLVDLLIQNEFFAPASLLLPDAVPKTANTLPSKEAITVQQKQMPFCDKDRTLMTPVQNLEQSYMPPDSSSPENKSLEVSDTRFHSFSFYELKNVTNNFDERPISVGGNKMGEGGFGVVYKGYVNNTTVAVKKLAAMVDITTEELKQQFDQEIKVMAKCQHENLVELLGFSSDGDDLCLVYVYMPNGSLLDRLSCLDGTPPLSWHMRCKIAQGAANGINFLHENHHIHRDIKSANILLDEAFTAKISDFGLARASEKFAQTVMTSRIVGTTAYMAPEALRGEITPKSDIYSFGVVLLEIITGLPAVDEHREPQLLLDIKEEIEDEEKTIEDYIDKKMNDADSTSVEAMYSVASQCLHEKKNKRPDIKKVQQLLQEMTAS

For the molecule `Cn1c(=O)n(C2CCC(=O)NC2=O)c2ccc(CCCCOCCCCNC[C@H]3CC[C@H](n4cc(NC(=O)c5cnn6ccc(N7CCNCC7)nc56)c(C(F)F)n4)CC3)cc21` (stereo partly shown) [I-42], the values for the DC50 in assay [1] (setting [7]) and in assay [5] were 0.01 to 0.1 µM and less than 0.05 µM, respectively. The IC50 (as a rule, the concentration that inhibits the measured activity by half) in assay [2] was more than 1 µM; in assay [3] it was more than 1 µM; in assay [4], 0.1 to 0.5 µM; in assay [6], less than 0.05 µM.
Consider `CN(C[C@H]1CN(CC#Cc2ccc3c(c2)n(C)c(=O)n3C2CCC(=O)NC2=O)CCO1)C[C@H]1CC[C@H](n2cc(NC(=O)c3coc(-c4ccnc(NCC5CC5)c4)n3)c(C(F)F)n2)CC1` (stereo partly shown) [I-61], for which the DC50 in assay [1] (setting [7]) is 0.01 to 0.1 µM; in assay [5], 0.1 to 0.5 µM; in assay [6], 0.05 to 0.1 µM. For the same molecule, the IC50 in assay [2] was 0.1 to 0.5 µM; in assay [3], more than 1 µM; in assay [4], 0.1 to 0.5 µM.
Turning to `Cn1c(=O)n(C2CCC(=O)NC2=O)c2cccc(CCCOCCN3CCN(C[C@H]4CC[C@H](n5cc(NC(=O)c6coc(-c7ccnc(NCC8CC8)c7)n6)c(C(F)F)n5)CC4)CC3)c21` (stereo partly shown) [I-58], the results for the DC50 in assay [1] (setting [7]) and in assay [5] were less than 0.01 µM and 0.05 to 0.1 µM, respectively. Moreover, the IC50 in assay [2] was 0.05 to 0.1 µM; in assay [3] it was more than 1 µM; in assay [4], 0.1 to 0.5 µM; in assay [6], less than 0.05 µM.
With `Cn1c(=O)n(C2CCC(=O)NC2=O)c2cccc(CCCN3CCO[C@H](CNC[C@H]4CC[C@H](n5cc(NC(=O)c6coc(-c7ccnc(NCC8CC8)c7)n6)c(C(F)F)n5)CC4)C3)c21` (stereo partly shown) [I-37], the DC50 in assay [1] (setting [7]) was 0.01 to 0.1 µM; in assay [5], less than 0.05 µM. The IC50 in assay [2] was less than 0.05 µM; in assay [3], 0.1 to 0.5 µM; in assay [4], less than 0.05 µM; in assay [6], less than 0.05 µM.
As for `O=C1CCC(n2c3ccc(CCCOCCOCCNCC4CCC(n5cc(NC(=O)c6coc(-c7ccnc(NCC8CC8)c7)n6)c(C(F)F)n5)CC4)cc3c3cccnc32)C(=O)N1` (stereo not shown) [I-47], the DC50 in assay [1] (setting [7]) was in the range of 0.01 to 0.1 µM; in assay [1] (OCI-LY10, 24 hrs, read-out: IRAK4 MSD degradation in OCI-LY10 at 24 hrs: Average external-Abs DC50), 0.01 to 0.1 µM; in assay [5] it was 0.1 to 0.5 µM; in assay [6] it was 0.5 to 1 µM. In addition, the IC50 in assay [2] is 0.1 to 0.5 µM; in assay [3] it was more than 1 µM; in assay [4] it was 0.1 to 0.5 µM.
In the case of `Cn1c(=O)n(C2CCC(=O)NC2=O)c2ccc(CCCN3CCO[C@@H](CNC[C@H]4CC[C@H](n5cc(NC(=O)c6coc(-c7ccnc(NCC8CC8)c7)n6)c(C(F)F)n5)CC4)C3)cc21` (stereo partly shown) [I-16], the DC50 is less than 0.01 µM in assay [1] (setting [7]) and 0.05 to 0.1 µM in assay [5]. In addition, the IC50 in assay [2] was 0.1 to 0.5 µM; in assay [3], more than 1 µM; in assay [4], 0.1 to 0.5 µM; in assay [6] it was less than 0.05 µM.
On to `O=C1CCC(N2C[C@H](c3cccc(C#CCN4CCO[C@@H](CNC[C@H]5CC[C@H](n6cc(NC(=O)c7coc(-c8ccnc(NCC9CC9)c8)n7)c(C(F)F)n6)CC5)C4)c3)OC2=O)C(=O)N1` (stereo partly shown) [I-39], for which the DC50 in assay [1] (setting [7]) was in the range of 0.01 to 0.1 µM; in assay [5], 0.1 to 0.5 µM; in assay [6], 0.05 to 0.1 µM. Also, the values for the IC50 in assay [2], in assay [3] and in assay [4] were 0.05 to 0.1 µM, 0.1 to 0.5 µM and 0.05 to 0.1 µM, respectively.
Turning to `CN(CCOCCOCCCc1cccc2c1n(C)c(=O)n2C1CCC(=O)NC1=O)C(=O)[C@H]1CC[C@H](n2cc(NC(=O)c3coc(-c4ccnc(NCC5CC5)c4)n3)c(C(F)F)n2)CC1` (stereo partly shown) [I-32], the DC50 in assay [1] (setting [7]) was less than 0.01 µM; in assay [5] it was 0.05 to 0.1 µM. The IC50 is 0.1 to 0.5 µM in assay [2], more than 1 µM in assay [3], 0.05 to 0.1 µM in assay [4] and less than 0.05 µM in assay [6].
